Results: the NIST ThermoML archive (doi:10.1016/j.fluid.2016.10.026)
± gives the expanded uncertainty stated by the source.

Details: for mass density / kinematic viscosity / speed of sound: Liquid; for mass density: Vibrating tube method; for surface tension liquid-gas: Drop volume; for kinematic viscosity: Capillary tube (Ostwald / Ubbelohde) method; for speed of sound: Frequency=3 MHz, Sing-around technique in a fixed-path interferometer

CC(=O)c1cccs1 [2-acetylthiophene]
Details	kinematic viscosity [m2/s]	mass density [kg/m3]	speed of sound [m/s]
298.15 K, 2000 kPa	–	1167.52 ± 0.24	–
298.15 K, 5000 kPa	–	1169.28 ± 0.26	–
298.15 K, 7000 kPa	–	1170.46 ± 0.26	–
298.15 K, 10000 kPa	–	1172.2 ± 0.28	–
298.15 K, 15000 kPa	–	1175.02 ± 0.3	–
298.15 K, 20000 kPa	–	1177.77 ± 0.33	–
298.15 K, 25000 kPa	–	1180.44 ± 0.35	–
298.15 K, 30000 kPa	–	1183.06 ± 0.38	–
298.15 K, 35000 kPa	–	1185.59 ± 0.42	–
298.15 K, 40000 kPa	–	1188.08 ± 0.45	–
298.15 K, 45000 kPa	–	1190.5 ± 0.48	–
298.15 K, 50000 kPa	–	1192.87 ± 0.52	–
298.15 K, 55000 kPa	–	1195.17 ± 0.57	–
298.15 K, 60000 kPa	–	1197.42 ± 0.61	–
298.15 K, 65000 kPa	–	1199.61 ± 0.66	–
300.65 K, 101 kPa	2.1e-06 ± 2.4e-08	1163.91 ± 0.16	1460.5 ± 0.92
303.15 K, 100 kPa	–	1161.59 ± 0.24	–
303.15 K, 101 kPa	1.99e-06 ± 2.3e-08	1161.52 ± 0.16	1451.8 ± 0.92
303.15 K, 2000 kPa	–	1162.77 ± 0.24	–
303.15 K, 5000 kPa	–	1164.6 ± 0.25	–
303.15 K, 7000 kPa	–	1165.79 ± 0.26	–
303.15 K, 10000 kPa	–	1167.56 ± 0.27	–
303.15 K, 15000 kPa	–	1170.45 ± 0.3	–
303.15 K, 20000 kPa	–	1173.26 ± 0.32	–
303.15 K, 25000 kPa	–	1175.98 ± 0.35	–
303.15 K, 30000 kPa	–	1178.65 ± 0.38	–
303.15 K, 35000 kPa	–	1181.25 ± 0.41	–
303.15 K, 40000 kPa	–	1183.77 ± 0.44	–
303.15 K, 45000 kPa	–	1186.24 ± 0.48	–
303.15 K, 50000 kPa	–	1188.64 ± 0.51	–
303.15 K, 55000 kPa	–	1190.99 ± 0.56	–
303.15 K, 60000 kPa	–	1193.27 ± 0.6	–
303.15 K, 65000 kPa	–	1195.5 ± 0.64	–
305.65 K, 101 kPa	1.9e-06 ± 2.2e-08	1159.13 ± 0.16	1443.2 ± 0.91
308.15 K, 100 kPa	–	1156.84 ± 0.24	–
308.15 K, 101 kPa	1.81e-06 ± 2.1e-08	1156.74 ± 0.16	1434.8 ± 0.91
308.15 K, 2000 kPa	–	1158.03 ± 0.24	–
308.15 K, 5000 kPa	–	1159.89 ± 0.25	–
308.15 K, 7000 kPa	–	1161.11 ± 0.26	–
308.15 K, 10000 kPa	–	1162.92 ± 0.27	–
308.15 K, 15000 kPa	–	1165.87 ± 0.29	–
308.15 K, 20000 kPa	–	1168.75 ± 0.32	–
308.15 K, 25000 kPa	–	1171.53 ± 0.34	–
308.15 K, 30000 kPa	–	1174.24 ± 0.37	–
308.15 K, 35000 kPa	–	1176.89 ± 0.4	–
308.15 K, 40000 kPa	–	1179.46 ± 0.43	–
308.15 K, 45000 kPa	–	1181.98 ± 0.47	–
308.15 K, 50000 kPa	–	1184.43 ± 0.5	–
308.15 K, 55000 kPa	–	1186.82 ± 0.55	–
308.15 K, 60000 kPa	–	1189.15 ± 0.59	–
308.15 K, 65000 kPa	–	1191.41 ± 0.63	–
310.65 K, 101 kPa	1.72e-06 ± 2e-08	1154.35 ± 0.16	1426.1 ± 0.91
313.15 K, 100 kPa	–	1152.05 ± 0.23	–
313.15 K, 101 kPa	1.65e-06 ± 1.9e-08	1151.96 ± 0.16	1417.5 ± 0.91
313.15 K, 2000 kPa	–	1153.3 ± 0.24	–
313.15 K, 5000 kPa	–	1155.19 ± 0.25	–
313.15 K, 7000 kPa	–	1156.45 ± 0.26	–
313.15 K, 10000 kPa	–	1158.29 ± 0.27	–
313.15 K, 15000 kPa	–	1161.33 ± 0.29	–
313.15 K, 20000 kPa	–	1164.23 ± 0.31	–

Details	surface tension liquid-gas [mN/m]
300.65 K	42.86 ± 0.47
303.15 K	42.59 ± 0.47
305.65 K	42.31 ± 0.47
308.15 K	42.03 ± 0.46
310.65 K	41.72 ± 0.46
313.15 K	41.43 ± 0.46
